What was measured:
MAPKAPK5 = biological target: T1, MAPKAPK5 (Homo sapiens, UniProt Q8IW41); test: MAPKAP-K5 assay (FlashPlate, 33P-ATP); type: biochemical; settings: 0.6 μM ATP, 30 minutes at room temperature
T1 construct: 1 mU MAPKAP-K5
T1 sequence (Q8IW41 1-473): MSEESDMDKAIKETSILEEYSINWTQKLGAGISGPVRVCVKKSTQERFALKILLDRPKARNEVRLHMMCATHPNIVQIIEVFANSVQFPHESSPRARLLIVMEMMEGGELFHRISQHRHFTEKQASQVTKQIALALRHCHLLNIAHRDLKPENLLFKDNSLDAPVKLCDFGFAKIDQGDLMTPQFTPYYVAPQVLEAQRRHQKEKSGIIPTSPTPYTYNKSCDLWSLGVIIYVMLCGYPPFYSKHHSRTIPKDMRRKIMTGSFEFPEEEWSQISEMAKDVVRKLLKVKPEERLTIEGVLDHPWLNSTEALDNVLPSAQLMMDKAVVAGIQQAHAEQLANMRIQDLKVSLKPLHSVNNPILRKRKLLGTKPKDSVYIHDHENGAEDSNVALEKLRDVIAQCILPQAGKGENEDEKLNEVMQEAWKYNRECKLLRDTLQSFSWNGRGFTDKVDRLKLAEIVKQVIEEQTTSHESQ
Procedure: 3 μM MAPKAP-K5 peptide substrate

MMP1 expression by SFs = test: 'MMP assay': MMP1 expression by 'complex trigger' activated synovial fibroblasts (MMP1 ELISA); type: cell-based, human; settings: Homo sapiens, Fibroblast, RASFs, 48 hrs

| Compound | IC50 (MAPKAPK5) [nM] | EC50 (MMP1 expression by SFs) [nM] |
| --- | --- | --- |
| CN1CCN(c2ccc(Nc3ncc(-c4ccnc(N)c4)n4ccnc34)cc2)CC1 [Compound 132, [5-(2-Amino-pyridin-4-yl)-imidazo[1,2-a]pyrazin-8-yl]-[4-(4-methyl-piperazin-1-yl)-phenyl]-amine] | > 1000 | > 1000 |
| NC(=O)Cn1cc(-c2cnc(Nc3ccc(N4CCOCC4)cc3)c3nccn23)cn1 [Compound 24] | > 1000 | > 1000 |
| CN1CCN(c2ccc(Nc3ncc(-c4ccc(C(N)=O)c(N(C)C)c4)n4ccnc34)cc2)CC1 [Compound 126, 2-Dimethylamino-4-{8-[4-(4-methyl-piperazin-1-yl)-phenylamino]-imidazo[1,2-a]pyrazin-5-yl}-benzamide] | > 1000 | > 1000 |
| Cc1cnc2c(Nc3ccc(N4CCOCC4)cc3)ncc(-c3cn[nH]c3)n12 [Compound 131, [3-Methyl-5-(1H-pyrazol-4-yl)imidazo[1,2-a]pyrazin-8-yl]-(4-morpholin-4-yl-phenyl)amine] | > 1000 | > 1000 |
| NC(=O)c1cc(-c2cnc(Nc3ccc(NC(=O)c4ccccc4)nc3)c3nccn23)cs1 [Compound 195] | > 1000 | > 1000 |
| COc1cccc(Nc2ncc(-c3ccc(C(N)=O)cc3)n3ccnc23)c1 [Compound 19] | > 1000 | 501 to 1000 |
| CCN(CC)CCNC(=O)c1ccc(Nc2ncc(-c3cn[nH]c3)n3ccnc23)c(C)c1 [Compound 58] | > 1000 | > 1000 |
| Cc1nc(-c2cnc(Nc3ccc(N4CCOCC4)cc3)c3nccn23)n[nH]1 [Compound 100] | > 1000 | > 1000 |
| CCN(CC)CCNC(=O)c1ccc(Nc2ncc(-c3cccnc3)n3ccnc23)cc1 [Compound 72] | > 1000 | > 1000 |
| O=C(NCCc1c[nH]c2ccccc12)c1ccc(Nc2ncc(-c3cn[nH]c3)n3ccnc23)cc1 [Compound 94] | 501 to 1000 | > 1000 |
| NC(=O)c1ccc(-c2cnc(Nc3ccc(N)cc3)c3nccn23)cc1 [Compound 18] | > 1000 | > 1000 |
| COc1cc(Nc2ncc(-c3cn[nH]c3)n3ccnc23)ccc1C(=O)NCc1ccccc1 [Compound 182] | > 1000 | > 1000 |
| CCN(CC)CCNC(=O)c1ccc(Nc2ncc(-c3ccncc3)n3ccnc23)cc1 [Compound 86] | > 1000 | > 1000 |
| CN1CCN(c2ccc(Nc3ncc(-c4ccc(C(=O)N5CCCC5)cc4)n4ccnc34)cc2)CC1 [Compound 115] | > 1000 | > 1000 |
| NC(=O)c1cc(-c2cnc(Nc3ccc(C4CCN(CC(F)(F)F)CC4)cc3)c3nccn23)cs1 [Compound 194] | > 1000 | 501 to 1000 |
| CN1CCN(c2ccc(Nc3ncc(-c4cn[nH]c4C(F)(F)F)n4ccnc34)cc2)CC1 [Compound 157, [4-(4-Methyl-piperazin-1-yl)-phenyl]-[5-(3-trifluoromethyl-1H-pyrazol-4-yl)-imidazo[1,2-a]pyrazin-8-yl]-amine] | > 1000 | > 1000 |
| c1cn2c(-c3nc[nH]n3)cnc(Nc3ccc(N4CCOCC4)cc3)c2n1 [Compound 91] | > 1000 | > 1000 |
| O=c1cc(-c2cnc(Nc3ccc(N4CCOCC4)cc3)c3nccn23)cc(C(F)(F)F)[nH]1 [Compound 161, 6-Trifluoromethyl-4-[8-(4-morpholin-4-ylphenylamino)imidazo[1,2-a]pyrazin-5-yl]-1H-pyridin-2-one] | > 1000 | > 1000 |
| NC(=O)c1ccc(-c2cnc(Nc3ccc4[nH]ccc4c3)c3nccn23)cc1 [Compound 28] | > 1000 | 501 to 1000 |
| NC(=O)c1cnc(Nc2ccc(N3CCOCC3)cc2)c2nccn12 [Compound 66] | > 1000 | > 1000 |
| CN1CCN(c2ccc(Nc3ncc(-c4cncc(C(N)=O)c4)n4ccnc34)cc2)CC1 [Compound 121, 5-{8-[4-(4-Methyl-piperazin-1-yl)-phenylamino]-imidazo[1,2-a]pyrazin-5-yl}-nicotinamide] | > 1000 | > 1000 |
| Nc1ccc(Nc2ncc(-c3cn[nH]c3)n3ccnc23)cc1 [Compound 15] | > 1000 | > 1000 |
| CCN(CC)CCNC(=O)c1ccc(Nc2ncc(-c3ccc(C(N)=O)cc3)n3ccnc23)cc1 [Compound 46] | > 1000 | > 1000 |
| NC(=O)c1ccc(Nc2ncc(-c3ccc(C(=O)O)cc3)n3ccnc23)cc1 [Compound 52] | > 1000 | > 1000 |

More lines, main results first:

| IC50 (MAPKAPK5) [nM] | Compound | EC50 (MMP1 expression by SFs) [nM] |
| --- | --- | --- |
| > 1000 | CCN(CCO)c1ccc(Nc2ncc(-c3cn[nH]c3)n3ccnc23)c(C)c1 [Compound 12] | > 1000 |
| > 1000 | Cc1cn2c(-c3cn[nH]c3)cnc(Nc3ccc(C(N)=O)cc3)c2n1 [Compound 92] | > 1000 |
| > 1000 | Cc1cnc2c(Nc3ccc(N4CCOCC4)cc3)ncc(-c3ccc(C(N)=O)cc3)n12 [Compound 130, 4-[3-Methyl-8-(4-morpholin-4-ylphenylamino)imidazo[1,2-a]pyrazin-5-yl]benzamide] | > 1000 |
| > 1000 | O=C(O)c1ccc(-c2cnc(Nc3ccc(C(=O)NCCN4CCOCC4)cc3)c3nccn23)cc1 [Compound 54] | > 1000 |
| > 1000 | NC(=O)c1ccc(-c2cnc(Nc3ccc(C(=O)NCc4cccnc4)cc3)c3nccn23)cc1 [Compound 104] | > 1000 |
| > 1000 | CCN(CC)CCNC(=O)c1ccc(Nc2ncc(-c3cn[nH]c3)n3cc(C)nc23)cc1 [Compound 59] | > 1000 |
| 101 to 500 | N#Cc1[nH]ncc1-c1cnc(Nc2ccc(N3CCOCC3)cc2)c2nccn12 [Compound 212, 4-[8-(4-Morpholin-4-yl-phenylamino)-imidazo[1,2-a]pyrazin-5-yl]-2H-pyrazole-3-carbonitrile] | 101 to 500 |
| > 1000 | NC(=O)c1ccc(-c2cnc(Nc3ccc(-n4ccc(C(F)(F)F)n4)cc3)c3nccn23)cc1 [Compound 133] | 101 to 500 |
| 101 to 500 | O=C1NCc2cc(-c3cnc(Nc4cnc(N5CCOCC5)nc4)c4nccn34)ccc21 [Compound 215] | > 1000 |
| > 1000 | NC(=O)c1ccc(-c2cnc(Nc3cccnc3)c3nccn23)cc1 [Compound 96] | > 1000 |
| > 1000 | CCN(CC)CCNC(=O)c1ccc(Nc2ncc(-c3ccoc3)n3ccnc23)cc1 [Compound 74] | > 1000 |
| > 1000 | N#Cc1ccc(Nc2ncc(-c3cn[nH]c3)n3ccnc23)cc1Cl [Compound 34] | 501 to 1000 |
| > 1000 | CCN(CCO)c1ccc(Nc2ncc(-c3cccc(C(N)=O)c3)n3ccnc23)cc1 [Compound 2] | > 1000 |
| 101 to 500 | NC(=O)c1cc(Nc2ncc(-c3cc(F)c(C(N)=O)c(F)c3)n3ccnc23)ccc1N1CCOCC1 [Compound 175, 4-[8-(3-Carbamoyl-4-morpholin-4-yl-phenylamino)-imidazo[1,2-a]pyrazin-5-yl]-2,6-difluoro-benzamide] | 501 to 1000 |
| > 1000 | CCN(CC)CCNC(=O)c1ccc(Nc2ncc(-c3cn[nH]c3)n3ccnc23)cc1OC [Compound 48] | > 1000 |
| > 1000 | CCN(CC)CCNC(=O)c1cccc(Nc2ncc(-c3cn[nH]c3)n3ccnc23)c1 [Compound 50] | > 1000 |
